One assay concerns T1, CaV1.2.
T1 construct: gene CACNA1C
Nature of the assay: patch-clamp of heterologously expressed channel, Vh -80 mV ([…] at -50 mV). The format is cell-based.

In assay [1] the target is T2, CaV2.2 (N-type) calcium channel (Rattus norvegicus, UniProt Q02294).
T2 construct: gene Cacna1b
As to the kind of experiment: patch-clamp in HEK293 cells expressing the channel, Vh -50 mV ([…] at -80 mV). Type of assay: cell-based. (In general: In patch-clamp work, channel activity is measured electrically.)

T2 sequence (Q02294 whole entry): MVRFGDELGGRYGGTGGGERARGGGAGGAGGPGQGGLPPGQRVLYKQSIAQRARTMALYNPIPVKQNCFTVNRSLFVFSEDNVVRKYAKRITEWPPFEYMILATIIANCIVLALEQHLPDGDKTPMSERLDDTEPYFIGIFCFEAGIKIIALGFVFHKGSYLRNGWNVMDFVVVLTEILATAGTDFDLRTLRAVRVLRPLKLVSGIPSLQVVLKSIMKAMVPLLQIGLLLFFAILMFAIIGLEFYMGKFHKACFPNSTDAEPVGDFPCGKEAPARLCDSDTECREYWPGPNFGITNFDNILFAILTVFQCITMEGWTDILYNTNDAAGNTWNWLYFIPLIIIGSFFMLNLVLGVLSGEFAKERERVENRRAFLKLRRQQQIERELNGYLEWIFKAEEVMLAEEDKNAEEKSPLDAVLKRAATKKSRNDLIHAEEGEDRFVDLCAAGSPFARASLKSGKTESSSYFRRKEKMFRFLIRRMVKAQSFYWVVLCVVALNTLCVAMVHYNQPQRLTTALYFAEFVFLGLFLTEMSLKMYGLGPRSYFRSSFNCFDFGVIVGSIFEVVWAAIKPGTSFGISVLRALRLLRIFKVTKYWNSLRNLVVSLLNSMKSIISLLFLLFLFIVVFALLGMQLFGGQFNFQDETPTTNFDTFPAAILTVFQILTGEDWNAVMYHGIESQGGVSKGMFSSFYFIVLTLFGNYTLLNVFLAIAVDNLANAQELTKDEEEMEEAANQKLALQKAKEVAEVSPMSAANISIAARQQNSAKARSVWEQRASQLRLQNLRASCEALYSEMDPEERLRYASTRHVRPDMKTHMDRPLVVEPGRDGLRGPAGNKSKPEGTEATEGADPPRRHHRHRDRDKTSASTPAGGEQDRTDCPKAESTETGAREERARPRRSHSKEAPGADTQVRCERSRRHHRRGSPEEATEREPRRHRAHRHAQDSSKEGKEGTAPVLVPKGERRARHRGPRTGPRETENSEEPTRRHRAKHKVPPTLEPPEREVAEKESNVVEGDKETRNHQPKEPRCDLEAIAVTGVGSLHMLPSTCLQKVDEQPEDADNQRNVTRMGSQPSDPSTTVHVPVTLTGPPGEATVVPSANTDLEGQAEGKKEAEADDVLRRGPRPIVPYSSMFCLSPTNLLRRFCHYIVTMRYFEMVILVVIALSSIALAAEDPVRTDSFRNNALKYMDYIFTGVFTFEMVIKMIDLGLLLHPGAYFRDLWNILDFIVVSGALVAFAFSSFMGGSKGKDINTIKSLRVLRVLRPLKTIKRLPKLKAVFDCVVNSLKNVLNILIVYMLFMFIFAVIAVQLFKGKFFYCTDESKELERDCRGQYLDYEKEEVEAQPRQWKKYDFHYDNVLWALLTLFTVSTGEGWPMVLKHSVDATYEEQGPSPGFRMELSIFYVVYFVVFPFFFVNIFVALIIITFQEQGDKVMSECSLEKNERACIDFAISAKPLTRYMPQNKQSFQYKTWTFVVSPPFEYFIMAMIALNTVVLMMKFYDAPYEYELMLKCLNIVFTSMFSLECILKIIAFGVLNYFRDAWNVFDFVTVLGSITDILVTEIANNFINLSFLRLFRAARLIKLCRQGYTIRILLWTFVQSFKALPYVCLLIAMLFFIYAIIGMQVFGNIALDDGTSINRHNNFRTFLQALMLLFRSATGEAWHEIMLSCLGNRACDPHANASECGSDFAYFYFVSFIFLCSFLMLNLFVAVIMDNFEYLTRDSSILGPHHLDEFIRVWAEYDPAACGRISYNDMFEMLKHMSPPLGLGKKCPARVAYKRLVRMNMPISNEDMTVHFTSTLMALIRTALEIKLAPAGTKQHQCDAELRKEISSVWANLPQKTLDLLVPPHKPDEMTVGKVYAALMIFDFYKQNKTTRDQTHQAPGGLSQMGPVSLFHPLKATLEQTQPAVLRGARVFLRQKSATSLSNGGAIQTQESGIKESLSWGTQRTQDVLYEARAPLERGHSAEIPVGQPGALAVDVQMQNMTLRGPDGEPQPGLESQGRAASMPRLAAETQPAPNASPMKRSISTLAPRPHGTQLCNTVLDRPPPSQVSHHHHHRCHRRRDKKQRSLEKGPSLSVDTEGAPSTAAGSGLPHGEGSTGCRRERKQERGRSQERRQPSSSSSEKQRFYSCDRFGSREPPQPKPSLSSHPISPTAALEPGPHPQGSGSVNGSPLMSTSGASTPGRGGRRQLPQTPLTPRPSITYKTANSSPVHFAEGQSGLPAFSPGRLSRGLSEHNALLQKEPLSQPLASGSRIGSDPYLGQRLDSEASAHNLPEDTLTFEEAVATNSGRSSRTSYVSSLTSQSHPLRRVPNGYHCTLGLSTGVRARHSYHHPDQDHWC

In the case of `COc1ccc(OCC(O)CNC2CCCC2)c(C(C)(C)C)c1` (racemic) [C2230, 1-(2-tert-butyl-4-methoxyphenoxy)-3-(cyclopentylamino)propan-2-ol], the IC50 – broadly, the midpoint of a concentration-inhibition curve – in the assay with CaV1.2 is 22.7 ± 6.3 µM; in assay [1], 1.3 ± 0.1 µM.
